≈ marks a conversion by molar mass, not a printed value.
Assays:
[1] = cited from earlier work
[2] = test system: Immunalysis immunoassay antibody; details: Table 2, Immunalysis; data from Robertson and Marinetti, 2003; cited from earlier work
[3] = test system: carisoprodol-specific antibody raised from Immunogen 2; assay: Immunoassay with carisoprodol-specific antibody raised from Immunogen 2 (Table 1); assay type: binding; details: Table 1, antibody raised from Immunogen 2 as titled
[4] = test system: Ig fractions of the antisera raised to Immunogen 4; assay: Competitive ELISA with antibodies raised to Immunogen 4 (Randox immunoassay of the invention); assay type: binding, sheep; details: for % CR: based on 100% specificity to meprobamate; for CR (cross-reactivity): relative to meprobamate = 100%
Description: An aqueous solution of Immunogen 4 was formulated with Freund's Complete Adjuvant (FCA) to form an emulsion consisting of 2 mg/ml immunogen in 50% (v/v) FCA. Three sheep were immunised with this emulsion (1° immunisation), 0.25 ml being intramuscularly injected at each of four sites in the rump of each animal. Subsequent immunizations (boosts) contained 1 mg/ml immunogen. All boosts were emulsified in 50% (v/v) Freund's Incomplete Adjuvant (FIA) and were administered in the same manner as the 1° immunisation, at monthly intervals for 1 year. Blood sampling took place 7 to 14 days after each boost. Each sample was processed to produce antiserum, which was further purified by caprylic acid and ammonium sulfate precipitation to yield an immunoglobulin (Ig) fraction. The Ig fraction was evaluated by competitive ELISA microtiter plate assay, as described in Example 16.
The wells of an enhanced binding 96 well polystyrene microtiter plate were coated with a mixture of the Ig fractions of the antisera raised to Immunogen 4, diluted in 10 mM Tris, pH8.5 (125 μl/well). The appropriate antibody coating dilution was determined using standard ELISA checkerboard techniques. The plate was incubated for 2 hours at 37° C., washed 4 times with Tris buffered saline containing Tween 20 (TBST) and tapped dry. Standard solutions of meprobamate, carisoprodol and mebutamate were prepared in TBST at 0, 0.1, 1.0, 5, 10, 25, 50 and 100 ng/ml, and 50 μl of each was added to the appropriate wells.
The conjugate prepared in Example 14 diluted in Tris buffer (pH 7.2) containing EDTA, D-mannitol, sucrose, thimerosal and BSA, was added to each of the wells. The appropriate dilution of conjugate was also determined using standard ELISA checkerboard techniques. The plate was incubated at 25° C. for 1 hour. Excess unbound conjugate was removed by washing 6 times over a 10 minute period with TBST. 125 μl of tetramethylbenzidine (TMB) substrate solution was added to each well of the plate that was then incubated for 20 minutes in the dark at room temperature. The reaction was terminated by addition of 125 μl 0.2M H2SO4 to each well. The absorbance was then measured at 450 nm using a microtiter plate reader.

[5] = test system: IDS immunoassay antibody; details: Table 2, IDS commercial immunoassay; cited from earlier work
[6] = Table 2, Randox immunoassay, concentration producing 50% B/B0
[7] = competitive ELISA, Hapten-B-HRP conjugate, absorbance 450 nm, standard concentration producing 50% B/B0

| Structure (SMILES) | plasma half-life ([1]; plasma) [h] | excreted unchanged in the urine ([1]; urine) | % CR [2] [%] | IC50 [2] [ng/mL] | % CR [3] [%] | IC50 [3] [ng/mL] | % CR ([4]; Table 2, Randox immunoassay) [%] | IC50 [4, 6] [ng/mL] | IC50 [4, 7] [ng/mL] | CR (cross-reactivity) ([4]; competitive ELISA) [%] | % CR [5] [%] | IC50 [5] [ng/mL] | serum half-life ([1]; serum) | time detectable in serum ([1]; serum, not detectable beyond this time (Olsen et al 1994)) [h] | excreted unchanged in urine ([1]; single orally administered carisoprodol tablet (350 mg)) |
| --- | --- | --- | --- | --- | --- | --- | --- | --- | --- | --- | --- | --- | --- | --- | --- |
| CCCC(C)(COC(N)=O)COC(N)=O [meprobamate] | 6 to 16 | 10-12% | 19 | 132 (≈ 0.605 µM) | 100 | 8 (≈ 0.0367 µM) | 100 | 8 | 8.64 | 100 | <0.01 | >6000 | – | – | – |
| CCC(C)C(C)(COC(N)=O)COC(N)=O (centres unmarked) [mebutamate] | – | – | – | – | – | – | – | – | – | 7 | – | – | – | – | – |
| CCCC(C)(COC(N)=O)COC(=O)NC(C)C (centres unmarked) [carisoprodol] | – | – | 100 | 25 (≈ 0.096 µM) | 57 | 15 (≈ 0.0576 µM) | 57 | 15 | 15.15 | 57 | 100 | 0.6 (≈ 0.0023 µM) | under 2 hours | ≤ 12 | less than 1% |
